# Measurements: the supplement of paper PMC7695840
# “And” between values parts separate entries of the source, which are not always exact repeats. Equal values may be shown once. Where a name gives a salt, the structure may show the parent alone.
# Columns and labels:
# [1] = tested on: Staphylococcus aureus MW2 (mecA+); assay: IC50 (growth, competition assay); details: cefoxitin: subinhibitory
# How it was run: (§1)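 Pre-induced, 1:1-mixed fluorescent S. aureus MW2 mecA+ and ΔmecA strains were grown 20 h at 37 °C, 90% humidity, unshaken, in LB with a daily-set subinhibitory cefoxitin dose, in 1536-well plates. Compounds were given on five- or nine-point 2-fold gradients, in two dye-swapped replicates. DsRed (540/590) and GFP (485/520) were scaled per plate between single-strain control medians, with No Treatment then set to 0.5. Per-strain IC50 was the dose halving the No Treatment signal, or the maximal signal.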
# [2] = tested on: Staphylococcus aureus MW2 delta-mecA (mecA-); assay: IC50 (growth, competition assay); details: cefoxitin: subinhibitory
# How it was run: as §1
Compound,IC50 ([1]; fluorescent label: DsRed),IC50 ([1]; fluorescent label: GFP),IC50 ([2]; fluorescent label: DsRed),IC50 ([2]; fluorescent label: GFP)
[O-][n+]1ccccc1[S-].[O-][n+]1ccccc1[S-].[Zn+2] [Zinc Pyrithione],< 9.85 µM,< 9.85 µM,< 9.85 µM,< 9.85 µM
CCOc1ccc2ccccc2c1C(=O)N[C@@H]1C(=O)N2[C@@H]1SC(C)(C)[C@@H]2C(=O)O [Nafcillin Sodium],< 9.85 µM,< 9.85 µM,< 9.85 µM,< 9.85 µM
C[C@@H](O[C@H]1OCCN(Cc2n[nH]c(=O)[nH]2)[C@H]1c1ccc(F)cc1)c1cc(C(F)(F)F)cc(C(F)(F)F)c1 [Aprepitant (MK-0869)],45 µM,54.3 µM,18.9 µM,17.8 µM
COc1ccc2c(c[n+](C)c3c4cc5c(cc4ccc23)OCO5)c1OC [Chelerythrine chloride],36.7 µM,49.2 µM,15 µM,< 9.85 µM
CCCCCCCCCCCCCCCCOP(=O)([O-])OCC[N+](C)(C)C [Miltefosine (Hexadecylphosphocholine)],> 150 µM,> 150 µM,36.2 µM,56.8 µM
N[C@@H]1CCCN(c2c(/C=C3\SC(=O)NC3=O)cccc2-c2ccccc2)C1 [AZD1208],111 µM,101 µM,26.7 µM,22.8 µM
Cc1nnc(SCC2=C(C(=O)O)N3C(=O)[C@@H](NC(=O)Cn4cnnn4)[C@H]3SC2)s1 [Cefazolin sodium],< 9.85 µM,< 9.85 µM,< 9.85 µM,< 9.85 µM
CC[C@H]1OC(=O)[C@H](C)[C@@H](O[C@H]2C[C@@](C)(OC)[C@@H](O)[C@H](C)O2)[C@H](C)[C@@H](O[C@@H]2O[C@H](C)C[C@H](N(C)C)[C@H]2O)[C@](C)(O)C[C@@H](C)C(=O)[C@H](C)[C@@H](O)[C@]1(C)O [Erythromycin (E-Mycin)],1.42 µM,1.62 µM,< 0.498 µM,< 0.498 µM
CC[C@H]1OC(=O)C[C@@H](O)[C@H](C)[C@@H](O[C@@H]2O[C@H](C)[C@@H](O[C@H]3C[C@@](C)(O)[C@@H](O)[C@H](C)O3)[C@H](N(C)C)[C@H]2O)[C@@H](CC=O)C[C@@H](C)C(=O)/C=C/C(C)=C/[C@@H]1CO[C@@H]1O[C@H](C)[C@@H](O)[C@@H](OC)[C@H]1OC [Tylosin tartrate],< 9.85 µM,< 9.85 µM,< 9.85 µM,< 9.85 µM
Cc1oc(=O)oc1CN1CCN(c2cc3c(cc2F)c(=O)c(C(=O)O)c2n3C(C)S2)CC1 (stereo not drawn) [QUISNON],< 9.85 µM,< 9.85 µM,< 9.85 µM,< 9.85 µM
C[C@H]1[C@H](C)CC[C@]2(C(=O)O)CC[C@]3(C)C(=CC[C@@H]4[C@@]5(C)C[C@@H](O)[C@H](O)[C@@](C)(CO)[C@@H]5[C@H](O)C[C@]43C)[C@H]12 [MADECASSIC ACID],53.8 µM,54.5 µM,47.8 µM,30 µM
NC1CCN(c2c(F)cc3c(=O)c(C(=O)O)cn(C4CC4)c3c2Cl)C1 (stereo not drawn) [CLINAFOXACIN HYDROCHLORIDE],< 9.85 µM,< 9.85 µM,< 9.85 µM,< 9.85 µM
C=C(NC(=O)C(=C)NC(=O)c1csc(C2=N[C@@H]3c4csc(n4)[C@H]4NC(=O)c5csc(n5)[C@H]([C@](C)(O)[C@@H](C)O)NC(=O)[C@H]5CSC(=N5)/C(=C/C)NC(=O)[C@H]([C@@H](C)O)NC(=O)c5csc(n5)[C@]3(CC2)NC(=O)[C@H](C)NC(=O)C(=C)NC(=O)[C@H](C)NC(=O)[C@H]([C@@H](C)CC)N[C@@H]2C=Cc3c([C@H](C)O)cc(nc3[C@H]2O)C(=O)O[C@@H]4C)n1)C(N)=O [BRYAMYCIN],< 9.85 µM,< 9.85 µM,< 9.85 µM,< 9.85 µM
Cc1onc(-c2c(Cl)cccc2Cl)c1C(=O)N[C@@H]1C(=O)N2[C@@H]1SC(C)(C)[C@@H]2C(=O)O [DYNAPEN],< 9.85 µM,< 9.85 µM,< 9.85 µM,< 9.85 µM
CCN(CC)C(=S)SSC(=S)N(CC)CC [Tetraethylthiuram disulfide],33.4 µM,36.1 µM,< 9.85 µM,< 9.85 µM
O=C1C(Cl)=C(NCCN2CCOCC2)C(=O)c2ncccc21,33 µM,91.7 µM,28.8 µM,< 9.85 µM
CC1(C)S[C@@H]2[C@H](NC(=O)C(C(=O)O)c3ccccc3)C(=O)N2[C@H]1C(=O)O (stereo partly drawn) [Carbenicillin disodium],20.8 µM,42.1 µM,< 9.85 µM,< 9.85 µM
O=[N+]([O-])c1ccc(O)c2ncccc12 [ENTEROCOL],16.2 µM,54.4 µM,38.4 µM,< 9.85 µM
C=C1C(=O)[C@]23[C@H](CC[C@@H]1[C@@H]2O)[C@]12CO[C@@]3(O)[C@H](O)[C@H]1C(C)(C)CC[C@@H]2O [RUBESCENSIN A],36.3 µM,84.5 µM,17.9 µM,17.2 µM
"CC(C)c1ccc2c(c1)CC[C@H]1[C@](C)(CN)CCC[C@]21C [18-AMINOABIETA-8,11,13-TRIENE SULFATE]",62.5 µM,79.2 µM,55.7 µM,55.8 µM
C[C@H]1c2cccc(O)c2C(=O)C2=C(O)[C@]3(O)C(=O)C(C(N)=O)=C(O)[C@@H](N(C)C)[C@@H]3[C@@H](O)[C@@H]21 [Doxycycline HCl],< 9.85 µM,< 9.85 µM,< 9.85 µM,< 9.85 µM
Clc1ccc(C(Cn2ccnc2)OCc2ccsc2Cl)c(Cl)c1 (stereo not drawn) [Tioconazole],29.7 µM,17.8 µM,3.9 µM,14.2 µM
CC[C@@]1([C@@H]2O[C@@H]([C@H]3O[C@@](O)(CO)[C@H](C)C[C@@H]3C)C[C@@H]2C)CC[C@H]([C@]2(C)CC[C@]3(C[C@H](O)[C@@H](C)[C@@H]([C@@H](C)[C@@H](OC)[C@H](C)C(=O)O)O3)O2)O1 [Monensin sodium salt (Coban)],2.46 µM and < 9.85 µM,8.62 µM and 13.9 µM,3.16 µM and < 9.85 µM,< 0.498 µM
N[C@@H]1[C@H]2CN(c3nc4c(cc3F)c(=O)c(C(=O)O)cn4-c3ccc(F)cc3F)C[C@@H]12 [Trovafloxacin mesylate],< 9.85 µM,< 9.85 µM,< 9.85 µM,< 9.85 µM
COc1ccc2c(c1)CCC1C2CCC2(C)C(NCCCCCCN3C(=O)C=CC3=O)CCC12 (stereo not drawn),> 150 µM,> 150 µM,46.3 µM,44.2 µM
C[C@H]1[C@H](C)CC[C@]2(C(=O)O)CC[C@]3(C)C(=CC[C@@H]4[C@@]5(C)C[C@@H](O)[C@H](O)[C@@](C)(CO)[C@@H]5CC[C@]43C)[C@H]12 [Asiatic acid],54.9 µM and 27.7 µM,29.7 µM and 27.7 µM,17 µM and 28 µM,17.5 µM and 23.5 µM

Compound,IC50 ([1]; fluorescent label: DsRed),IC50 ([1]; fluorescent label: GFP),IC50 ([2]; fluorescent label: DsRed),IC50 ([2]; fluorescent label: GFP)
Cc1nc2sccn2c(=O)c1CCN1CCC(=C(c2ccc(F)cc2)c2ccc(F)cc2)CC1 [Ritanserin],57.5 µM,56.9 µM,17.3 µM,29 µM
CC1(C)S[C@@H]2[C@H](NC(=O)[C@H](NC(=O)N3CCNC3=O)c3ccccc3)C(=O)N2[C@H]1C(=O)O [Azlocillin sodium salt],< 9.85 µM,27.7 µM,< 9.85 µM,< 9.85 µM
Clc1ccc(COC(Cn2ccnc2)c2ccc(Cl)cc2Cl)c(Cl)c1 (stereo not drawn) [MONISTAT],< 9.85 µM,< 9.85 µM,< 9.85 µM,< 9.85 µM
CC(C)=CCC[C@]1(C)C=Cc2c(O)c3c(c(CC=C(C)C)c2O1)O[C@]12C(=C[C@@H]4C[C@H]1C(C)(C)O[C@@]2(C/C=C(/C)C(=O)O)C4=O)C3=O [GAMBOGIC ACID],< 9.85 µM,< 9.85 µM,< 9.85 µM,< 9.85 µM
C=CCc1ccccc1OCC(O)CNC1(C)CCC(C(C)(C)NC(=O)CBr)CC1 (stereo not drawn) [Bromoacetyl alprenolol menthane],14.8 µM,14.2 µM,< 9.85 µM,< 9.85 µM
COc1c(O)cc2oc3cc(O)c(CC=C(C)C)c(O)c3c(=O)c2c1CC=C(C)C [alpha-MANGOSTIN],< 9.85 µM,< 9.85 µM,< 9.85 µM,< 9.85 µM
COc1cc(C)c(C(=O)Oc2cc(C)c(C(=O)O)c(O)c2C)c(OC)c1C [DIFFRACTAIC ACID],31 µM,27.5 µM,12.8 µM,15.7 µM
CN(C)C(=S)SSC(=S)N(C)C [REZIFILM],33.4 µM,63.6 µM,18.2 µM,23.6 µM
CC/C(=C(\c1ccccc1)c1ccc(OCCN(C)C)cc1)c1ccccc1 [Tamoxifen citrate],14.9 µM,14.9 µM,< 9.85 µM,< 9.85 µM
C[C@@H](O)[C@H]1C(=O)N2C(C(=O)O)=C(S[C@@H]3CN[C@H](CNS(N)(=O)=O)C3)[C@H](C)[C@H]12 [Doripenem Hydrate],> 150 µM,> 150 µM,137 µM,130 µM
NCc1ccccc1CC(=O)N[C@@H]1C(=O)N2C(C(=O)O)=C(CSc3nnnn3CC(=O)O)CS[C@H]12 [PRECEF],53.1 µM,44.7 µM,< 9.85 µM,< 9.85 µM
CCn1cc(C(=O)O)c(=O)c2cc(F)c(N3CCN(C)CC3)cc21 [Pefloxacin Mesylate Dihydrate],< 9.85 µM,< 9.85 µM,< 9.85 µM,< 9.85 µM
CN(C)c1ccc(O)c2c1C[C@H]1C[C@H]3[C@H](N(C)C)C(O)=C(C(N)=O)C(=O)[C@@]3(O)C(O)=C1C2=O [Minocycline hydrochloride],< 9.85 µM,< 9.85 µM,< 9.85 µM,< 9.85 µM
CCC[C@@H]1C[C@@H](C(=O)N[C@@H]([C@H]2O[C@H](SC)[C@H](O)[C@@H](O)[C@H]2O)[C@@H](C)O)N(C)C1 [LINCOCIN],< 9.85 µM,< 9.85 µM,< 9.85 µM,< 9.85 µM
O=c1[nH]cc(F)c(=O)[nH]1 [5-Fluorouracil],< 9.85 µM,< 9.85 µM,< 9.85 µM,< 9.85 µM
CO/N=C(\C(=O)N[C@@H]1C(=O)N2C(C(=O)OCOC(=O)C(C)(C)C)=C(/C=C\c3scnc3C)CS[C@H]12)c1csc(N)n1 [Cefditoren pivoxil],16.7 µM,13.3 µM,< 0.498 µM,< 0.498 µM
O=C1NC(=O)[C@@]2(CCOc3ccc(F)cc32)N1 [Sorbinil],< 9.85 µM,< 9.85 µM,< 9.85 µM,< 9.85 µM
O=c1c(O)c(-c2ccc(O)c(O)c2)oc2cc(O)cc(O)c12 [Quercetin dihydrate],56.9 µM,55.7 µM,18.4 µM,10.4 µM
CCn1cc(C(=O)O)c(=O)c2cc(F)c(N3CCNCC3)cc21 [Norfloxacin (Norxacin)],0.816 µM,0.772 µM,< 0.498 µM,< 0.498 µM
C[C@@H]1CN(c2c(F)c(F)c3c(=O)c(C(=O)O)cn(C4CC4)c3c2F)C[C@H](C)N1 [ORBAX],< 9.85 µM,15.1 µM,17.8 µM,< 9.85 µM
O=C(O[C@@H]1Cc2c(O)cc(O)cc2O[C@@H]1c1cc(O)c(=O)c2c(O)c(O)cc([C@H]3Oc4cc(O)cc(O)c4C[C@H]3O)c2c1)c1cc(O)c(O)c(O)c1 [THEAFLAVIN MONOGALLATES],111 µM,93.4 µM,14.8 µM,20.5 µM
O=C(O)Cc1cccc(OCCCN(Cc2cccc(C(F)(F)F)c2Cl)CC(c2ccccc2)c2ccccc2)c1 [GW3965 HCl],< 9.85 µM,< 9.85 µM,< 9.85 µM,< 9.85 µM
C[C@@H]1CCO[C@H]2Cn3cc(C(=O)NCc4ccc(F)cc4F)c(=O)c(O)c3C(=O)N12,> 150 µM,> 150 µM,109 µM,59 µM
CC1CC(OC(=O)C(O)c2ccccc2)CC(C)(C)C1 (stereo not drawn) [CYCLOSPASMOL],45.1 µM,83.4 µM,15.1 µM,13.8 µM
CCCCCCCCCCCCCCCC[n+]1ccccc1 [CEPACOL],< 9.85 µM,< 9.85 µM,< 9.85 µM,< 9.85 µM
COc1cc2c(c(OC)c1OC)-c1ccc(=O)c(O)cc1[C@@H](NC(C)=O)CC2 [COLCHICEINE],81.3 µM,84.6 µM,45.5 µM,51.2 µM
